# Data taken from patent US11485735B2, “Selective CDK4/6 inhibitor and preparation thereof” (Wuxi Shuangliang Biotechnology Co., Ltd., priority 2019, dated 2022).
# pIC50: −log10 of the molar value. “Also recorded” adds a separate entry of the source.
# Legend:
# [1] = target: CDK2 (Homo sapiens, UniProt P24941); experiment: In-vitro kinase inhibitory activity, CDK2 (selectivity); assay type: biochemical; settings: read-out: IC50 (half maximal inhibitory concentration, nM) CDK2
# [2] = target: T1, CDK4/CyclinD3 (Homo sapiens, UniProt P11802); experiment: In-vitro kinase inhibitory activity, CDK4/CyclinD3 (Caliper EZ Reader II mobility shift); assay type: biochemical; settings: CDK4/CyclinD3 20 nM, ATP 2 mM, Peptide 1 μM, 27° C., 180 min; read-out: IC50 (half maximal inhibitory concentration, nM) CDK4
# T1 construct: purchased Wuxi Biortus Biosciences Co. Ltd
# How it was run: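 Compound was preincubated 10 min with CDK4/CyclinD3 in Tris pH 8.0 with 5 mM MgCl2, then peptide substrate and ATP were added for 180 min at 27 °C, and the reaction was stopped with EDTA. Substrate and product were separated by mobility shift. IC50 comes from non-linear dose-response fits, with at least two replicates.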
# [3] = target: T2, CDK6/CyclinD3 (Homo sapiens, UniProt Q00534); experiment: In-vitro kinase inhibitory activity, CDK6/CyclinD3 (Caliper EZ Reader II mobility shift); assay type: biochemical; settings: CDK6/CyclinD3 20 nM, ATP 2 mM, Peptide 1 μM, 27° C., 120 min; read-out: IC50 (half maximal inhibitory concentration, nM) CDK6
# T2 construct: purchased Wuxi Biortus Biosciences Co. Ltd
# How it was run: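 Compound was preincubated 10 min with CDK6/CyclinD3, then peptide substrate plus ATP was added and the reaction ran 120 min at 27° C. before EDTA stop. Substrate and phosphorylated product were separated by microfluidic mobility shift, at least two replicates. IC50 from non-linear regression of dose-response curves.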
# [4] = system: human breast cancer MCF-7 cells; experiment: Growth inhibition of tumor cells cultured in vitro, CellTiter-Glo, MCF-7; assay type: cell-based; settings: for IC50: MCF-7, 72 h, CellTiter-Glo; for inhibitory effect on human breast cancer MCF-7 cells (in words): summary of the table
# How it was run: (§1)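 Cells were seeded at 6000/well, COLO205 in RPMI-1640 with 10% FBS and MCF-7 in MEM with 10% FBS plus 0.01 mg/mL insulin, and grown 24 h before dosing. Compound dilutions in medium (10 to 0.0015 μM/L before addition, DMSO <0.1%) were tested in triplicate for 72 h at 37° C. IC50 was derived from CellTiter-Glo luminescence.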
# [5] = system: human colon cancer COLO205 cells; experiment: Growth inhibition of tumor cells cultured in vitro, CellTiter-Glo, COLO205; assay type: cell-based; settings: for IC50: COLO205, 72 h, CellTiter-Glo; for inhibitory effect on human colon cancer COLO205 cells (in words): summary of the table
# How it was run: as §1
# [6] = target: CDK9 (Homo sapiens, UniProt P50750); experiment: In-vitro kinase inhibitory activity, CDK9 (selectivity); assay type: biochemical; settings: read-out: IC50 (half maximal inhibitory concentration, nM) CDK9
# [7] = target: T3, CRBN (Homo sapiens, UniProt Q96SW2); experiment: In-vitro inhibition assay of CRBN activity (fluorescence polarization, Cy5-Thalidomide); assay type: binding; settings: Cy5-Thalidomide 10 nM, CRBN 180 nM, 27° C., 60 min
# T3 construct: purchased Wuxi Biortus Biosciences Co. Ltd
# Protocol: The final volume for assay was 20 μL, and the reaction temperature was 27° C. CRBN was produced by Wuxi Biortus Biosciences Co. Ltd. The concentration of the kinase was determined by the optimization experiment, and the kinase was diluted with an assay buffer (50 mM Tris, pH 7.5, 100 mM NaCl, and 0.01% Pluronic acid) to obtain a corresponding kinase solution (2× concentration). The compound was dissolved in dimethyl sulfoxide (DMSO) to reach a concentration of 10 mM. […] 5 μL of the test compound solution was mixed with 5 μL of the substrate solution, and 10 μL of the kinase solution was added to the mixture. The mixture was incubated at 27° C. for 60 min. Each assay was conducted in at least two replicates. […].
# The final concentrations of the reagents in the assay were as follows. […] The data of fluorescence polarization assay were read on TECAN infinite M1000. Data were calculated by using GraphPad Prism version 6.0, and IC50 values were obtained by adjusting the non-linear regression models of the dose response curves.
# T2 sequence (Q00534 whole entry, species assumed): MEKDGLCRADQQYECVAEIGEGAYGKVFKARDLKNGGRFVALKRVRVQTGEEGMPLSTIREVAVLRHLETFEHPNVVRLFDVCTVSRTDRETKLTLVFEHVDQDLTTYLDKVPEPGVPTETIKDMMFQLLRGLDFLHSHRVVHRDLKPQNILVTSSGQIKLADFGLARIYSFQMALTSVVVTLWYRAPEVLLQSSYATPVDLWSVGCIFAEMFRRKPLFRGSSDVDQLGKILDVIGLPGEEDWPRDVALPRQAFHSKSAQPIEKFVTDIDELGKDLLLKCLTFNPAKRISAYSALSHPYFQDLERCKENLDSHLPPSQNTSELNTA
# T2 sequence (P30281 whole entry partner, species assumed): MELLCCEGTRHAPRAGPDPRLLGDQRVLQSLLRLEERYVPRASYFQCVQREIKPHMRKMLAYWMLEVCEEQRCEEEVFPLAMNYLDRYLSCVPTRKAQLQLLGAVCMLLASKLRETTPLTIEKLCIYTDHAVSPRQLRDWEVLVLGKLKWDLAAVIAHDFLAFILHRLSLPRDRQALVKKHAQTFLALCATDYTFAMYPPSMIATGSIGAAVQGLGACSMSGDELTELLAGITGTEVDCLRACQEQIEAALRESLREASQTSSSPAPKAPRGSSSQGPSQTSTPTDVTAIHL
# CDK9, sequence (P50750 whole entry, species assumed): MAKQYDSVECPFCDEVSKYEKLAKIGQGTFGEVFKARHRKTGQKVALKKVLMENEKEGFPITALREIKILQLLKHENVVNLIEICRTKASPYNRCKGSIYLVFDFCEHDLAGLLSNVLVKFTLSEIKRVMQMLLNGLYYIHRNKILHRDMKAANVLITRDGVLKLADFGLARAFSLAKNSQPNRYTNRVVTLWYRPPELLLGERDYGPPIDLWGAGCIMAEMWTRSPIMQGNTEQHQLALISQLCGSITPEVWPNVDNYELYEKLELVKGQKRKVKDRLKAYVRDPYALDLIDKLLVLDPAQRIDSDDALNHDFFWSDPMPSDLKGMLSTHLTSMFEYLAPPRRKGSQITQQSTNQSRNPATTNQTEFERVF
# CDK9, sequence (O60563 whole entry partner, species assumed): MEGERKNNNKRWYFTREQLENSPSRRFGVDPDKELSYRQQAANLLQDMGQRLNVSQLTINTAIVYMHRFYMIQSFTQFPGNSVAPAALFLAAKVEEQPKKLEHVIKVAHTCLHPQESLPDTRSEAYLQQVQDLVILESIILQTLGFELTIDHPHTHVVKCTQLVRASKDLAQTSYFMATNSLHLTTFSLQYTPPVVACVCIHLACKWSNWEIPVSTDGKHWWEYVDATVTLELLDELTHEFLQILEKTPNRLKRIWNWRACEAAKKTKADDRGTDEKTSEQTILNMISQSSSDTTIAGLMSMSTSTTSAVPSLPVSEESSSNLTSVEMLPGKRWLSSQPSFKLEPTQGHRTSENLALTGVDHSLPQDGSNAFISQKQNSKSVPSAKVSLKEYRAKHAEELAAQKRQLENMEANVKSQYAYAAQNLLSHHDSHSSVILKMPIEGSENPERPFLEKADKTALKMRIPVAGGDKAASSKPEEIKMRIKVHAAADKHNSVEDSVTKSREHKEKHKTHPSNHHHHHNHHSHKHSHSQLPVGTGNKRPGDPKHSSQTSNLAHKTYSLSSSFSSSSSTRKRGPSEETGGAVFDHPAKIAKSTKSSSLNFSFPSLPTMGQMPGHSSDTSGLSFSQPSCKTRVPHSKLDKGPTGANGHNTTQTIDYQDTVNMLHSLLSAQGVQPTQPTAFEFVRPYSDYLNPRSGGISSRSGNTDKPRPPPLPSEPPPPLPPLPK
# T3 sequence (Q96SW2 whole entry, species assumed): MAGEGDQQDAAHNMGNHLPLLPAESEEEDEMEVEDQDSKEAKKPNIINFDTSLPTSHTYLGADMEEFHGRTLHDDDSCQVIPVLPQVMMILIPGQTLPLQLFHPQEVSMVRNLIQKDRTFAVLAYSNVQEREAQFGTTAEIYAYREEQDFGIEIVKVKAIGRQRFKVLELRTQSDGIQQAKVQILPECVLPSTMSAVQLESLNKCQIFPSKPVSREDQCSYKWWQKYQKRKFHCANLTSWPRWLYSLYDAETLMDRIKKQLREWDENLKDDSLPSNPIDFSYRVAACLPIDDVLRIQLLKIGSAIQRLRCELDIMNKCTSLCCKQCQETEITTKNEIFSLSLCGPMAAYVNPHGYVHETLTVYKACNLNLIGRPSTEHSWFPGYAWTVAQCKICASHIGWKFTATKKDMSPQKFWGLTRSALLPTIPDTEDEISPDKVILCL
# T1 sequence (P11802 whole entry, species assumed): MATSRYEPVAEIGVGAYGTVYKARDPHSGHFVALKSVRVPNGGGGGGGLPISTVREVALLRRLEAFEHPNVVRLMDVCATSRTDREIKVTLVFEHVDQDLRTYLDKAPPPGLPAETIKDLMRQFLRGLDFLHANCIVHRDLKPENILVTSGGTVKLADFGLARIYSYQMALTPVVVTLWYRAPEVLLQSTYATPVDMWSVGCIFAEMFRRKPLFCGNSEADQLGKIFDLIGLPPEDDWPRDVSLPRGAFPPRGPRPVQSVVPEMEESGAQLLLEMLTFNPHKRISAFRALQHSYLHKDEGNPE
# T1 sequence (P30281 whole entry partner, species assumed): as the sequence (P30281 whole entry partner, species assumed) above
SMILES,IC50 [1],IC50 [2],IC50 [3],"IC50 ([4]; Homo sapiens, MCF7, 72 h)","IC50 ([5]; Homo sapiens, COLO 205, 72 h)",IC50 [6],pIC50 [7],IC50 [4],IC50 ([5]; dihydrochloride),inhibitory effect on human colon cancer COLO205 cells (in words) [5],inhibitory effect on human colon cancer COLO205 cells (in words) ([5]; dihydrochloride),inhibitory effect on human breast cancer MCF-7 cells (in words) [4]
"CC(=O)c1c(C)c2cnc(Nc3ccc(N4CCN(CCN5CCN(c6ccc7c(c6)CN(C6CCC(=O)NC6=O)C7=O)CC5)CC4)cn3)nc2n(C2CCCC2)c1=O (single isomer, unassigned) [Compound 1, 3-(5-(4-(2-(4-(6-((6-acetyl-8-cyclopentyl-5-methyl-7-oxo-7,8-dihydropyrido[2,3-d]pyrimidin-2-yl)amino)pyridin-3-yl)piperazin-1-yl)ethyl)piperazin-1-yl)-1-oxoisoindolin-2-yl)piperidine-2,6-dione]",> 10000 nM,38.8 nM,21.3 nM,> 10000 nM,45.7 nM,4180 nM,5.52,–,–,relatively good inhibitory effects,–,–
"CC(=O)c1c(C)c2cnc(Nc3ccc(N4CCN(CCN5CCN(c6ccc7c(c6)CN(C6CCC(=O)NC6=O)C7=O)CC5)CC4)cn3)nc2n(C2CCCC2)c1=O.Cl.Cl (single isomer, unassigned) [Compound 2, 3-(5-(4-(2-(4-(6-((6-acetyl-8-cyclopentyl-5-methyl-7-oxo-7,8-dihydropyrido[2,3-d]pyrimidin-2-yl)amino)pyridin-3-yl)piperazin-1-yl)ethyl)piperazin-1-yl)-1-oxoisoindolin-2-yl)piperidine-2,6-dione dihydrochloride]",> 10000 nM,36.8 nM,22 nM,–,–,8710 nM,5.52,> 10000 nM,25.5 nM,–,relatively good inhibitory effects; also recorded: the best inhibitory effect,–
"CC(=O)c1c(C)c2cnc(Nc3ccc(N4CCN(CCN5CCC(CN6CCN(c7ccc8c(c7)CN(C7CCC(=O)NC7=O)C8=O)CC6)CC5)CC4)cn3)nc2n(C2CCCC2)c1=O.Cl.Cl.Cl (single isomer, unassigned) [Compound 4, 3-(5-(4-((1-(2-(4-(6-((6-acetyl-8-cyclopentyl-5-methyl-7-oxo-7,8-dihydropyrido[2,3-d]pyrimidin-2-yl)amino)pyridin-3-yl)piperazin-1-yl)ethyl)piperidin-4-yl)methyl)piperazin-1-yl)-1-oxoisoindolin-2-yl)piperidine-2,6-dione trihydrochloride]",> 10000 nM,10.7 nM,9.7 nM,50.5 nM,69.2 nM,8640 nM,5.68,–,–,relatively good inhibitory effects,–,relatively good inhibitory effects
"CC(=O)c1c(C)c2cnc(Nc3ccc(N4CCN(CCCCN5CCC(CN6CCN(c7ccc8c(c7)CN(C7CCC(=O)NC7=O)C8=O)CC6)CC5)CC4)cn3)nc2n(C2CCCC2)c1=O (stereo not shown) [Compound 5, 3-(5-(4-((1-(4-(4-(6-((6-acetyl-8-cyclopentyl-5-methyl-7-oxo-7,8-dihydropyrido[2,3-d]pyrimidin-2-yl)amino)pyridin-3-yl)piperazin-1-yl)butyl)piperidin-4-yl)methyl)piperazin-1-yl)-1-oxoisoindolin-2-yl)piperidine-2,6-dione]",9910 nM,10 nM,6.6 nM,30.4 nM,291 nM,5470 nM,5.28,–,–,–,–,relatively good inhibitory effects

# The next compounds have a lower IC50 [1] than those just listed; values first:
IC50 [1],IC50 [2],IC50 [3],"IC50 ([4]; Homo sapiens, MCF7, 72 h)","IC50 ([5]; Homo sapiens, COLO 205, 72 h)",IC50 [6],pIC50 [7],IC50 [4],IC50 ([5]; dihydrochloride),SMILES,inhibitory effect on human colon cancer COLO205 cells (in words) [5],inhibitory effect on human colon cancer COLO205 cells (in words) ([5]; dihydrochloride),inhibitory effect on human breast cancer MCF-7 cells (in words) [4]
7480 nM,54.7 nM,30 nM,–,–,9920 nM,5.85,–,–,"CC(=O)c1c(C)c2cnc(Nc3ccc(N4CCN(CC(=O)N5CCC(C(=O)N6CCN(c7ccc8c(c7)CN([C@H]7CCC(=O)NC7=O)C8=O)CC6)CC5)CC4)cn3)nc2n(C2CCCC2)c1=O [Compound 7, (S)-3-(5-(4-(1-(2-(4-(6-((6-acetyl-8-cyclopentyl-5-methyl-7-oxo-7,8-dihydropyrido[2,3-d]pyrimidin-2-yl)amino)pyridin-3-yl)piperazin-1-yl)acetyl)piperidin-4-carbonyl)piperazin-1-yl)-1-oxoisoindolin-2-yl)piperidine-2,6-dione]",–,–,–
9000 nM,19.9 nM,16.1 nM,821 nM,96.2 nM,3810 nM,5.92,–,–,"CC(=O)c1c(C)c2cnc(Nc3ccc(N4CCN(CCN5CCC(C(=O)N6CCN(c7ccc8c(c7)CN([C@H]7CCC(=O)NC7=O)C8=O)CC6)CC5)CC4)cn3)nc2n(C2CCCC2)c1=O [Compound 8, (S)-3-(5-(4-(1-(2-(4-(6-((6-acetyl-8-cyclopentyl-5-methyl-7-oxo-7,8-dihydropyrido[2,3-d]pyrimidin-2-yl)amino)pyridin-3-yl)piperazin-1-yl)ethyl)piperidin-4-carbonyl)piperazin-1-yl)-1-oxoisoindolin-2-yl)piperidine-2,6-dione]",relatively good inhibitory effects,–,–
